Data published in patent US6808924B1, “Mouse mammary tumor lines expressing estrogen and progesterone receptors” (priority 2000, dated 2004).

Assays:
[1] = system: MC4-L3 cell line; assay: In vitro hormone response, 3H-thymidine uptake, MC4-L3; type: cell-based, mouse
Method: (§1) 3H-Thymidine uptake: In a 96 well microplate, 0.1 ml/well of a cell suspension were seeded in EM at a concentration of 10^5 cell/ml. After attachment (24 hs), the cells were incubated for 72 hs with the experimental solutions to be tested. Half the media was changed every 24 hs. The cells were incubated with 0.4 μCi of ^3H-thymidine (specific activity: 20 Ci/mmol) for 24 hs, trypsinized and harvested in a cell harvester. Filters were counted in a liquid scintillation counter. Assays were performed in octuplicates and mean and standard deviation were calculated for each solution tested. The difference between controls and experimental groups were analyzed by ANOVA followed by Dunnet's t test between groups.

[2] = system: MC4-L1 cell line; assay: In vitro hormone response, 3H-thymidine uptake, MC4-L1; type: cell-based, mouse
Method: as §1

[3] = system: MC7-L1 cell line; assay: In vitro hormone response, 3H-thymidine uptake, MC7-L1; type: cell-based, mouse; set-up: In vitro proliferative response: key to the marks not given beside the values
Method: as §1

[4] = system: C4-HD primary and secondary cultures; details: primary and secondary cultures of C4-HD (Dran G. et al. 1995); cited from earlier work
[5] = system: MC7-L1 tumors; assay: In vivo hormone response, MC7-L1 tumors in BALB/c female mice; set-up: species or system mouse; details: for effect on tumor size (tumor regression): MC7-L1 tumors, ZK 10 mg/Kg or RU 6.5 mg/Kg daily sc, E2 5 mg silastic pellet sc
Method: (§2) Cells were trypsinized and resuspended in 10 fold excess of culture medium and 10% FCS. After centrifugation cells were resuspended in serum-free medium and […] were injected sc in a final volume of 0.1 ml using a 21 gauge needle in the right inguinal flank of BALB/c mice which have been inoculated contralaterally with 40 mg MPA depot (Gador Laboratories, Buenos Aires). The mice were examined every three days for the development of palpable tumors. At the end of the experiment the animals were killed and the tumors excised. Complete autopsies were performed to detect the presence of metastases. Animal care was in agreement with institutional guidelines. Cells from different lines were inoculated into BALB/c female mice treated or not with MPA as described previously. If tumors grew similarly in treated and untreated animals, the tumors growing in untreated mice were used for the next passage. Tumors were transplanted by trocar sc in the right inguinal flank of 2 month old, BALB/c female mice. Hormone treatments were initiated when the tumors reached around 50 mm2. RU (6.5 mg/Kg body weight) and ZK (10 mg/Kg body weight) were inoculated as daily sc injections. E2 was administered as 5 mg silastic pellets implanted sc. Tumor growth was measured every 2-3 days.

[6] = system: MC4-L1 tumors; assay: In vivo hormone response, MC4-L1 tumors in BALB/c female mice; set-up: species or system mouse; details: for effect on tumor size (tumor regression): MC4-L1 tumors about 50 mm2, no MPA, ZK 10 mg/Kg or RU 6.5 mg/Kg daily sc, E2 5 mg silastic pellet sc
Method: as §2

[7] = system: MC4-L2 tumors; assay: In vivo hormone response, MC4-L2 tumors in BALB/c female mice; set-up: species or system mouse
Method: as §2

[8] = system: MC4-L2 cell line; assay: In vitro hormone response, 3H-thymidine uptake, MC4-L2; type: cell-based, mouse
Method: as §1

[9] = system: MC4-L3 tumors; assay: In vivo hormone response, MC4-L3 tumors in BALB/c female mice; set-up: species or system mouse; details: for effect on tumor size (tumor regression): MC4-L3 tumors about 50 mm2, ZK 10 mg/Kg or RU 6.5 mg/Kg daily sc, E2 5 mg silastic pellet sc
Method: as §2

[10] = MC4-L1, early passages (before passage number 16)

In the case of TGFβ1: TGFβ1, the “effect on cell proliferation (3H-thymidine uptake)” value ([1]; MC4-L3) is reported as “inhibited”, the “effect on cell proliferation (3H-thymidine uptake)” value ([2]; MC4-L1, later passages) is reported as “significant inhibition of cell growth” and the “effect on thymidine uptake” value ([3]; MC7-L1) is reported as “had no effects”.
For `CC(=O)O[C@]1(C(C)=O)CC[C@H]2[C@@H]3C[C@H](C)C4=CC(=O)CC[C@]4(C)[C@H]3CC[C@@]21C` [MPA, medroxyprogesterone acetate], the “effect on cell proliferation” value [4] is given as “stimulates directly cell proliferation”, the “MPA dependence of tumor growth” value ([5]; MC7-L1, MPA-treated vs non-treated mice) is given as “PI pattern of growth” and the “MPA dependence of tumor growth” value ([6]; MC4-L1 inoculated sc, mice treated or not with 40 mg MPA depot sc) is given as “same pattern of growth that was observed in the parental tumor line”. For the same molecule, the “MPA dependence of tumor growth” value ([6]; MC4-L1 subculture 70, 3rd passage) was “MPA-dependent”, the “MPA dependence of tumor growth” value ([6]; MC4-L1 subculture 70, next passage) was “growth was favored” and the “MPA dependence of tumor growth” value ([7]; MC4-L2, MPA-treated vs non-treated mice) was “PI pattern of growth”. The “effect on cell proliferation (3H-thymidine uptake)” value [2, 10] was “stimulatory effect”, the “effect on cell proliferation (3H-thymidine uptake)” value ([2]; MC4-L1, later passages) was “only evident (p<0.05) with uM concentrations” and the “effect on cell growth (3H-thymidine uptake)” value ([3]; MC7-L1, about 1 nM to about 1 uM) was “significantly stimulates cell growth”. For the same molecule, the “effect on cell proliferation (3H-thymidine uptake)” value ([8]; MC4-L2, 0.1 nM to about 10 nM) was “significant stimulatory effect” and the “MPA dependence of tumor growth” value ([9]; MC4-L3, MPA-treated vs non-treated mice) was “PD pattern”.
In the case of `CN(C)c1ccc([C@H]2C[C@]3(C)[C@@H](CC[C@]3(O)CCCO)[C@@H]3CCC4=CC(=O)CCC4=C32)cc1` [ZK, onapristone], the “effect on tumor size (tumor regression)” value [5] is reported as “not inhibited”, the “effect on tumor size (tumor regression)” value [6] is reported as “showed tumor regression” and the “effect on cell proliferation (3H-thymidine uptake)” value ([2]; MC4-L1, μM concentrations) is reported as “stimulated cell proliferation”. For the same molecule, the “effect on thymidine uptake” value ([3]; MC7-L1) was “did not modify thymidine uptake”, the “effect on cell proliferation (3H-thymidine uptake)” value ([8]; MC4-L2, about 0.1 to about 1 uM) was “in some experiments showed an inhibitory effect” and the “effect on tumor size (tumor regression)” value [9] was “Complete regression”.
In the case of `C[C@]12CC[C@@H]3c4ccc(O)cc4CC[C@H]3[C@@H]1CC[C@@H]2O` [E2, estradiol], the “effect on tumor size (tumor regression)” value [5] is reported as “not inhibited”, the “In vitro proliferative response” value ([1]; MC4-L3, Table 2 grade) is reported as “−” and the “In vitro proliferative response” value ([2]; MC4-L1, Table 2 grade) is reported as “±”. For the same molecule, the “concentration at which the higher values of proliferation were obtained” value ([3]; MC7-L1) was “about 1 nM”, the “In vitro proliferative response” value ([3]; MC7-L1, Table 2 grade) was “++” and the “In vitro proliferative response” value ([8]; MC4-L2, Table 2 grade) was “+”.
For `CC#C[C@]1(O)CC[C@H]2[C@@H]3CCC4=CC(=O)CCC4=C3[C@@H](c3ccc(N(C)C)cc3)C[C@@]21C` [RU, mifepristone], the “effect on tumor size (tumor regression)” value [5] was “not inhibited”, the “effect on tumor size (tumor regression)” value [6] was “Only animals treated with ZK showed tumor regression” and the “effect on tumor size (tumor regression)” value ([7]; MC4-L2 tumors about 50 mm2, RU 6.5 mg/Kg daily sc) was “complete regression”. For the same molecule, the “effect on cell proliferation (3H-thymidine uptake)” value [2, 10] was “agonist effect”, the “effect on cell proliferation (3H-thymidine uptake)” value ([3]; MC7-L1, about 0.1 to about 1 μM) was “stimulatory effect” and the “effect on cell proliferation (3H-thymidine uptake)” value ([8]; MC4-L2) was “did not induce any change”. For the same molecule, the “effect on tumor size (tumor regression)” value [9] was “Complete regression”.
